Results: patent US20100087413A1, “Prevention and treatment of inflammation-induced and/or immune-mediated bone loss” (priority 2003, published 2010)
Read-outs that look alike come from different tables or passages of the source. Marks after values point to notes of the source that are not given here.

What was measured:
[1] = target: T1, human 11β-HSD1 (Homo sapiens, UniProt P28845); experiment: 11β-HSD1 reductase activity (conversion of radiolabelled cortisone to cortisol) in lysates of stably transfected HEK-293 cells; type: biochemical; conditions: for 11β-HSD1 % of control: 20 μM compound, 100 nM cortisone substrate, HEK-293 lysate
T1 construct: expressed in transfected cells; host or cells: HEK-293 cells, stably transfected; cell lysate
T1 sequence (P28845 whole entry): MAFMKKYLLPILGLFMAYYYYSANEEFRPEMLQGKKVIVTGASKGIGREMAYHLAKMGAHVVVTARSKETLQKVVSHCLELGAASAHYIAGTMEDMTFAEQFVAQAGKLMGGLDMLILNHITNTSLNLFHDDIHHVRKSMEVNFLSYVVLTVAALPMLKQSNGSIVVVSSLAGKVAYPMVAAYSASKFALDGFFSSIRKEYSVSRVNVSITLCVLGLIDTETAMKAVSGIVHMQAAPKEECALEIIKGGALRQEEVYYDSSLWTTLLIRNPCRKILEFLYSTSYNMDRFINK
Method: (§1) Cells were grown in 10 cm dishes to 80% confluence and incubated for 16 h in steroid-free medium (charcoal-treated fetal calf serum (FCS) from HyClone, Logan, Utah). Cells were rinsed once with phosphate-buffered saline (PBS), detached and centrifuged for 3 min at 150×g. The supernatant was removed and the cell pellet quick-frozen in a dry-ice ethanol bath. At the day of experiment, cell pellets were resuspended in buffer TS2 (100 mM NaCl, 1 mM EGTA, 1 mM EDTA, 1 mM MgCl2, 250 mM sucrose, 20 mM Tris-HCl, pH 7.4), sonicated and activities determined immediately. The rate of conversion of cortisol to cortisone or the reverse reaction was determined in 96-well optical PCR reaction plates (Applied Biosystems, Foster City, Calif.) in a final volume of 22 μl, and the tubes were capped during the reaction to avoid evaporation.
Reactions were initiated simultaneously by adding 10 μl of cell lysate and 12 μl of TS2 buffer containing the appropriate concentration of the inhibitory compound to be tested, NADPH, 30 nCi of [1,2,6,7-^3H]-cortisone and unlabeled cortisone, whereby final concentrations were 400 μM NADPH and 100 nM cortisone. Activities were determined immediately after cell disruption by measuring the conversion of radiolabeled cortisone to cortisol for 10 min.
(§2) Enzyme kinetics were analyzed by non-linear regression using Data Analysis Toolbox (MDL Information Systems Inc.) assuming first-order rate kinetics.
(§3) Assay with 20 μM of the corresponding compound in the reaction mixture, added simultaneously with the substrate:
(§4) Determination of IC50 values, using 7 different inhibitor concentrations at factor 2 intervals: […]

[2] = target: T2, human 11β-HSD2 (Homo sapiens, UniProt P80365); experiment: 11β-HSD2 oxidase activity (conversion of radiolabelled cortisol to cortisone) in lysates of stably transfected HEK-293 cells; type: biochemical; conditions: for 11β-HSD2 % of control: 20 μM compound, 25 nM cortisol substrate, HEK-293 lysate
T2 construct: expressed in transfected cells; host or cells: HEK-293 cells, stably transfected; cell lysate
T2 sequence (P80365 1-405): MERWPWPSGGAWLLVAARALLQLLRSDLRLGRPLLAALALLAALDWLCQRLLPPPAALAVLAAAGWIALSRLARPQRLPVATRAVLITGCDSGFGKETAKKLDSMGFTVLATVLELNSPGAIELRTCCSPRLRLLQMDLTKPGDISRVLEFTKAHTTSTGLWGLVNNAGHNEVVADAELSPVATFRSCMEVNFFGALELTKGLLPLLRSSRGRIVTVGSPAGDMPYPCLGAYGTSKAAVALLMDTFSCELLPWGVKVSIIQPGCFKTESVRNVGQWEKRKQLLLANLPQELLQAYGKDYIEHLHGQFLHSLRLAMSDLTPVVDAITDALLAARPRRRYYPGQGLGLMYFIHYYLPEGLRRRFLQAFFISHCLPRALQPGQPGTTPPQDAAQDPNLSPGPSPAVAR
Method: as §1
Reactions were initiated by simultaneously adding 10 μl of cell lysate and 12 μl of TS2 buffer containing the appropriate concentration of the inhibitory compound to be tested, NAD^+, 30 nCi of [1,2,6,7-^3H]-cortisol and unlabeled cortisol. […] Stock solutions of the inhibitors in methanol or DMSO were diluted in TS2 buffer to yield the appropriate concentrations, whereby the concentration of methanol or DMSO in the reactions were kept below 0.1%. Control reactions with or without 0.1% of the solvent were performed. Incubation was at 37° C. for 10 min with shaking, reactions were terminated by adding 10 μl of stop solution containing 2 mM of unlabeled cortisol and cortisone dissolved in methanol. The conversion of radiolabeled cortisol was determined by separation of cortisol and cortisone using TLC and a solvent system of 9:1 (v/v) chloroform:methanol, followed by scintillation counting.
as §2, §3, §4

[3] = Mittelwert (mean) of determinations 1-3, read-out: IC 50 11β-HSD1, Mittelwert
[4] = 7 inhibitor concentrations at factor 2 intervals
[5] = Mittelwert (mean) of the determinations, read-out: IC 50 11β-HSD2, Mittelwert

| 11β-HSD1 % of control [1] | 11β-HSD2 % of control [2] | SMILES | other results |
| --- | --- | --- | --- |
| 48.94 % of control | 121.6 % of control | COc1ccc(C(=O)C2=C(O)C(=O)N(CCCn3ccnc3)C2c2ccccc2)cc1Cl (stereo not shown) [BNW21] | – |
| 85.07 % of control | 132.6608 % of control | COc1cccc(/C=N/NC(=O)CSCc2ccccc2C)c1OC [BNW23] | – |
| 92.03 % of control | 82.81 % of control | CSc1nc2cc(C)c(C)cc2n1C1OC(CO)C(O)C1O (stereo not shown) [BNW18] | – |
| 46.83 % of control | 120.7 % of control | COCCN1C(=O)C(O)=C(C(=O)c2ccc(OC)c(C)c2)C1c1ccc(C)cc1 (stereo not shown) [BNW20] | – |
| 2.884* % of control | 13.93* % of control | C[C@H]1CC[C@]2(C)[C@H]3C(=O)C=C4[C@@H]5C[C@@](C)(C(=O)O)CC[C@]5(C)CC[C@@]4(C)[C@]3(C)CC[C@H]2C1(C)C [BNW25] | IC50 [1, 3]: 172 nM; IC50 ([1]; determination 1, 7 inhibitor concentrations at factor 2 intervals, read-out: IC 50 11β-HSD1, determination 1): 147 nM; IC50 ([1]; determination 2, 7 inhibitor concentrations at factor 2 intervals, read-out: IC 50 11β-HSD1, determination 2): 206 nM; IC50 ([1]; determination 3, 7 inhibitor concentrations at factor 2 intervals, read-out: IC 50 11β-HSD1, determination 3): 161 nM; IC50 [2, 5]: 59.7 nM; IC 50 11β-HSD2, determination 1 [2, 4]: out of range; IC50 ([2]; determination 2, 7 inhibitor concentrations at factor 2 intervals, read-out: IC 50 11β-HSD2, determination 2): 54.6 nM; IC50 ([2]; determination 3, 7 inhibitor concentrations at factor 2 intervals, read-out: IC 50 11β-HSD2, determination 3): 64.9 nM |
| 50.37 % of control | 56.95 % of control | CC1(C)[C@@H](OCO)CC[C@]2(C)[C@H]3C(=O)C=C4C5=C[C@@](C)(C(=O)O)CC[C@]5(C)CC[C@@]4(C)[C@]3(C)CC[C@@H]12 [BNW15] | – |
| 94.07 % of control | 136.8 % of control | COc1ccc(CNC(=O)C2CCC(=O)N2C2CCCC2)cc1OC (stereo not shown) [BNW26] | – |
| 88.22 % of control | 120.1 % of control | CCOc1ccc(C2c3cc(OCC)c(OCC)cc3CC(=O)N2c2ccc(C(=O)O)cc2)cc1OCC (stereo not shown) [BNW17] | – |
| 41.32 % of control | 104.3 % of control | CCOc1ccc(C2C(C(=O)c3ccc(Cl)cc3)=C(O)C(=O)N2CCCn2ccnc2)cc1OCC (stereo not shown) [BNW22] | – |
| 75.29 % of control | 115.4 % of control | CCN(CC)S(=O)(=O)c1ccc(OC)c(-c2nnc(-c3cc(S(=O)(=O)N(CC)CC)ccc3OC)o2)c1 [BNW29] | – |
| 48.36 % of control | 140 % of control | CCC(Sc1nnc(-c2ccc(OC)c(OC)c2)c(-c2ccc(OC)c(OC)c2)n1)C(=O)N(CC)CC (stereo not shown) [BNW30] | – |
| 76.73 % of control | 137 % of control | COc1cc(/C=N/NC(=O)CSc2nc3ccccc3n2Cc2ccc(C)cc2)cc(OC)c1OC(C)=O [BNW28] | – |

Second part, the compound before the results:

| SMILES | 11β-HSD1 % of control [1] | 11β-HSD2 % of control [2] | other results |
| --- | --- | --- | --- |
| COc1ccc(OC)c(C2C(C(=O)c3ccc(Br)cc3)=C(O)C(=O)N2CCCn2ccnc2)c1 (stereo not shown) [BNW2] | 78.84 % of control | 77.95 % of control | – |
| COCCC1C(=O)C(O)=C(C(=O)c2ccc(OC)c(C)c2)C1c1ccc(Cl)cc1Cl (stereo not shown) [BNW9] | 30.65 % of control | 77.43 % of control | – |
| NC(=O)c1c(NC(=O)C2CC=CCC2C(=O)O)sc2c1CCCCC2 (stereo not shown) [BNW8] | 41.71 % of control | 102.7 % of control | – |
| CCN(CC(O)COc1cc(C)c(Cl)c(C)c1)S(=O)(=O)O (stereo not shown) [BNW1] | 102.1 % of control | 96.77 % of control | – |
| COc1ccc(CCNC(=O)C23CCC(C)(C(=O)C2=O)C3(C)C)cc1OC (stereo not shown) [BNW7] | 9.593* % of control | 139.5 % of control | IC50 [1, 3]: 2030 nM; IC 50 11β-HSD2, determination 1 [2, 4]: did not inhibit; IC 50 11β-HSD2, determination 2 ([2]; determination 2, 7 inhibitor concentrations at factor 2 intervals): did not inhibit; IC 50 11β-HSD2, determination 3 ([2]; determination 3, 7 inhibitor concentrations at factor 2 intervals): did not inhibit |
| CCCCOc1ccc(C(=O)C2=C(O)C(=O)N(CCOC)C2c2cccnc2)c(C)c1 (stereo not shown) [BNW3] | 60.25 % of control | 53.57 % of control | – |
| COc1cc2c(cc1OC)C(COc1ccc([N+](=O)[O-])cc1)N(C(=O)c1ccc(Cl)c([N+](=O)[O-])c1)CC2 (stereo not shown) [BNW27] | 78.64 % of control | 126.4 % of control | – |
| COC(=O)[C@@]1(C)CC[C@]2(C)CC[C@]3(C)C(=CC(=O)[C@@H]4[C@@]5(C)CC[C@H](Oc6ccccc6C(=O)O)C(C)(C)[C@@H]5CC[C@]43C)[C@@H]2C1 [BNW13] | 3.879* % of control | 14.37* % of control | IC50 [1, 3]: 691 nM; IC50 [2, 5]: 281 nM; IC 50 11β-HSD2, determination 1 [2, 4]: out of range |
| Cc1nn(CC(=O)Nc2sc(C)c(C)c2C(N)=O)c(C)c1[N+](=O)[O-] [BNW4] | 82.24 % of control | 95.05 % of control | – |
| CC(=O)OC1CC[C@]2(C)C3=C(C(=O)C[C@H]2C1(C)C)[C@]1(C)CCC(C(C)CCC(=O)O)[C@@]1(C)CC3=O (stereo partly shown) [BNW16] | 2.708* % of control | 27.37 % of control | IC50 [1, 3]: 144 nM; IC50 [2, 5]: 3950 nM; IC 50 11β-HSD2, determination 1 [2, 4]: out of range |
| COc1ccc(C(=O)CNc2cccc(Cl)c2Cl)c(C(F)(F)F)c1 [BNW6] | 79.64 % of control | 145 % of control | – |
| CCN(CC)S(=O)(=O)c1ccc(Cl)c(C(=O)Nc2nc3ccc(S(C)(=O)=O)cc3s2)c1 [BNW12] | 85.36 % of control | 132.1 % of control | – |
| Cc1n[nH]c(O)c1C(c1ccc(-c2ccc(Cl)c(C(=O)O)c2)o1)c1c(O)n[nH]c1C [BNW5] | 69.75 % of control | 97.47 % of control | – |
| Cc1cccc(C)c1C1C(SCC(=O)Nc2c(Cl)cccc2Cl)=NN=C1c1cccc([S+]([O-])N(C)C)c1 (stereo not shown) [BNW11] | 70.1 % of control | 120.9 % of control | – |
